1 compound from ChEMBL document CHEMBL5380862, “Unsymmetrical Phosphodiesters as GPR84 Antagonists with High Blood Exposure for the Treatment of Lung Inflammation” (J Med Chem, 2023) can be followed below.

Data set [1] has as its target T1, Glucose-dependent insulinotropic receptor (Homo sapiens) (UniProt Q8TDV5).
T1 sequence (whole entry): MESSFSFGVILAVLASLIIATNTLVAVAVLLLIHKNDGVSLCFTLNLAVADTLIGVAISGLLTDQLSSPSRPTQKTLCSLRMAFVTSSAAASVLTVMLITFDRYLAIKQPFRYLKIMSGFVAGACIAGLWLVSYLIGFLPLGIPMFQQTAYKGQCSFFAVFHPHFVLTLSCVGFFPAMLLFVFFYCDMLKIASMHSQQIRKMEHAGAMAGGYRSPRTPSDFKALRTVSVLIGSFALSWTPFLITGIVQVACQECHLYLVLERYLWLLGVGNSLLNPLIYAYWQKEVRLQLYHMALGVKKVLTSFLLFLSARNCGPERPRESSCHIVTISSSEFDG
Kind of data set: Antagonist activity at GPR119 (unknown origin) expressed in HEK293 cells assessed as inhibition of AR231453 induced […] upto 100 uM pre-incubated for 10 mins followed by AR231453 addition and measured after 15 mins by cAMP detection assay. It counts as functional, cell-based. Conditions: time 25.0 min.

Data set [2] in a line: AUClast in ICR mouse at 5 mg/kg, po administered as single dose. It is filed as ADME, organism-based. Further details: dose 5 mg/kg, route po. The settings on record: in vivo.
The nature of data set [3]: AUClast in ICR mouse at 2 mg/kg, iv administered as single dose. Also noted: dose 2 mg/kg, route iv. It counts as ADME, organism-based. The settings on record: in vivo.
Data set [4] is described as follows: Drug distribution in mouse lung at 5 mg/kg, po administered as single dose and measured after 0.5 hrs by LC-MS analysis. It counts as ADME, organism-based. Conditions: read-out: Drug uptake.
The nature of data set [5]: Drug distribution in mouse brain at 5 mg/kg, po administered as single dose and measured after 2 hrs by LC-MS analysis. It counts as ADME, organism-based. The settings on record: read-out: Drug uptake.
The target of data set [6] is T2, Free fatty acid receptor 4 (Homo sapiens) (UniProt Q5NUL3).
T2 sequence (whole entry): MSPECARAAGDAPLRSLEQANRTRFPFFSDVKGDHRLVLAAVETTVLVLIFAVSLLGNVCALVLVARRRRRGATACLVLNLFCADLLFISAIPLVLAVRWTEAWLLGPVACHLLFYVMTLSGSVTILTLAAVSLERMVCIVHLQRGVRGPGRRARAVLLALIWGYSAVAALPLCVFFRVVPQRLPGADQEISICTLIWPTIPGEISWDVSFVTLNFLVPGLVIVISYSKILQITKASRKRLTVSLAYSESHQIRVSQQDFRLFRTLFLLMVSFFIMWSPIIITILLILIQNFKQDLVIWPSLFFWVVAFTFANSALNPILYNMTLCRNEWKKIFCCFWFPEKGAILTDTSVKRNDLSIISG
Kind of data set: Antagonist activity at GPR120 (unknown origin) expressed in HEK293 cells co-expressing Galpha16 assessed as inhibition of TUG-981 induced calcium response upto 100 uM incubated for 10 mins by calcium mobilization assay. It counts as functional, cell-based. For orientation: Calcium assays in cells follow changes in intracellular calcium, usually with a dye or a luminescent sensor.

The nature of data set [7]: Drug distribution in mouse lung at 5 mg/kg, po administered as single dose and measured after 2 hrs by LC-MS analysis. It is filed as ADME, organism-based. Conditions: read-out: Drug uptake.
Data set [8] is described as follows: Drug distribution in mouse plasma at 5 mg/kg, po administered as single dose and measured after 2 hrs by LC-MS analysis. It is filed as ADME, organism-based.
Data set [9] is described as follows: Drug distribution in mouse plasma at 5 mg/kg, po administered as single dose and measured after 0.5 hrs by LC-MS analysis. It is filed as ADME, organism-based.
In data set [10] the target is Beta-2 adrenergic receptor (Homo sapiens) (UniProt P07550). Put plainly: Antagonist activity at ARbeta2 (unknown origin) expressed in HEK293 cells co-expressing Galpha16 assessed as inhibition of Isoproterenol induced calcium response upto 100 uM incubated for 10 mins by calcium mobilization assay. It is filed as functional, cell-based.
Data set [11] in a line: Oral bioavailability in ICR mouse at 5 mg/kg administered as single dose. It is filed as ADME, organism-based. The settings on record: in vivo.
Data set [12] relates to Neutrophil. Kind of data set: Inhibition of cell migration in 3-hydroxydodecanoic acid-stimulated mouse CD11bpositive Ly6Gpositive neutrophils at 0.01 to 1 uM incubated for 1.5 hrs by flow cytometric analysis. The settings on record: dose 0.01-1 µM. It counts as functional, cell-based. (A flow cytometer gives signals particle by particle.)
Data set [13] addresses D(1A) dopamine receptor (Homo sapiens) (UniProt P21728). Kind of data set: Antagonist activity at DRD1 (unknown origin) expressed in HEK293 cells co-expressing Galpha16 assessed as inhibition of dopamine induced calcium response upto 100 uM incubated for 10 mins by calcium mobilization assay. It is filed as functional, cell-based.
Data set [14] can be described thus: Drug distribution in mouse liver at 5 mg/kg, po administered as single dose and measured after 0.5 hrs by LC-MS analysis. It counts as ADME, organism-based. The settings on record: read-out: Drug uptake.
Data set [15] deals with Free fatty acid receptor 1 (Homo sapiens) (UniProt O14842). Kind of data set: Antagonist activity at GPR40 (unknown origin) expressed in HEK293 cells co-expressing Galpha16 assessed as inhibition of TAK-875 induced calcium response upto 100 uM incubated for 10 mins by calcium mobilization assay. It counts as functional, cell-based.
Data set [16] has as its target Kappa-type opioid receptor (Homo sapiens) (UniProt P41145). Put plainly: Antagonist activity at KOR (unknown origin) expressed in HEK293 cells co-expressing Galpha16 assessed as inhibition of U50488 induced calcium response upto 100 uM incubated for 10 mins by calcium mobilization assay. It is filed as functional, cell-based.
The subject of a further data set is Monocyte. Put plainly: Inhibition of cell migration in 3-hydroxydodecanoic acid-stimulated mouse CD11bpositive Ly6Cpositive monocytes at 0.01 to 1 uM incubated for 1.5 hrs by flow cytometric analysis. Conditions: dose 0.01-1 µM. It counts as functional, cell-based.
Data set [17] deals with T3, Free fatty acid receptor 3 (Homo sapiens) (UniProt O14843).
T3 sequence (whole entry): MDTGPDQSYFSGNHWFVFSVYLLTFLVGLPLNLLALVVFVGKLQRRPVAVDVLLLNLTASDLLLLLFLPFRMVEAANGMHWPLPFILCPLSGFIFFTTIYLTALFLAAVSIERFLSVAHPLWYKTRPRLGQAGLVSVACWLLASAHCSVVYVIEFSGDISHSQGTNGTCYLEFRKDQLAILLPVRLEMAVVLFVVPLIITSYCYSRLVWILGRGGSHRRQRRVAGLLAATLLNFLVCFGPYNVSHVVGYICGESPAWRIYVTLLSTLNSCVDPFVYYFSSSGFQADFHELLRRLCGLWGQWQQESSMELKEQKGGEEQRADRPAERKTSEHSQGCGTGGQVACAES
Kind of data set: Antagonist activity at GPR41 (unknown origin) expressed in HEK293 cells co-expressing Galpha16 assessed as inhibition of sodium butyrate induced calcium response upto 100 uM incubated for 10 mins by calcium mobilization assay. It counts as functional, cell-based.

The target in data set [18] is Beta-3 adrenergic receptor (Homo sapiens) (UniProt P13945). Kind of data set: Antagonist activity at ARbeta3 (unknown origin) expressed in HEK293 cells co-expressing Galpha16 assessed as inhibition of Isoproterenol induced calcium response upto 100 uM incubated for 10 mins by calcium mobilization assay. It counts as functional, cell-based.
Data set [19] can be described thus: Drug distribution in mouse lung at 5 mg/kg, po administered as single dose and measured after 8 hrs by LC-MS analysis. It is filed as ADME, organism-based. The settings on record: read-out: Drug uptake.
Data set [20] can be described thus: Aqueous solubility of the compound incubated overnight by HPLC-DAD analysis. It counts as physicochemical. The settings on record: aqueous medium.
Data set [21] has as its target Beta-1 adrenergic receptor (Homo sapiens) (UniProt P08588). Kind of data set: Antagonist activity at ARbeta1 (unknown origin) expressed in HEK293 cells co-expressing Galpha16 assessed as inhibition of Isoproterenol induced calcium response upto 100 uM incubated for 10 mins by calcium mobilization assay. It counts as functional, cell-based.
Data set [22] concerns Neutrophil. Put plainly: Inhibition of cell migration in 6-n-[…]-stimulated mouse CD11bpositive Ly6Gpositive neutrophils at 0.01 to 1 uM incubated for 1.5 hrs by flow cytometric analysis. It counts as functional, cell-based. Conditions: dose 0.01-1 µM.

Active and inactive are the calls of the source. No cut-off for these calls is given here.

Chain of Kappa-type opioid receptor (Homo sapiens) (P41145 whole entry): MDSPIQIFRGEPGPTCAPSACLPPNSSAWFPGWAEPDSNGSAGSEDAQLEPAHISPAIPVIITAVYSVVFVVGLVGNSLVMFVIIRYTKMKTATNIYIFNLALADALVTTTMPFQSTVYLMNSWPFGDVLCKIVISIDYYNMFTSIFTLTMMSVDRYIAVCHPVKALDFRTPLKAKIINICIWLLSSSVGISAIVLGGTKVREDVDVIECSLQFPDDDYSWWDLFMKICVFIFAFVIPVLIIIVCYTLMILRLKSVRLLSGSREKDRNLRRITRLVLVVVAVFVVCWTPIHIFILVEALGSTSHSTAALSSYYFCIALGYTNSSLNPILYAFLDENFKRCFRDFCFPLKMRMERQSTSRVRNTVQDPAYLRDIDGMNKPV
Chain of Beta-2 adrenergic receptor (Homo sapiens) (P07550 whole entry, looked up): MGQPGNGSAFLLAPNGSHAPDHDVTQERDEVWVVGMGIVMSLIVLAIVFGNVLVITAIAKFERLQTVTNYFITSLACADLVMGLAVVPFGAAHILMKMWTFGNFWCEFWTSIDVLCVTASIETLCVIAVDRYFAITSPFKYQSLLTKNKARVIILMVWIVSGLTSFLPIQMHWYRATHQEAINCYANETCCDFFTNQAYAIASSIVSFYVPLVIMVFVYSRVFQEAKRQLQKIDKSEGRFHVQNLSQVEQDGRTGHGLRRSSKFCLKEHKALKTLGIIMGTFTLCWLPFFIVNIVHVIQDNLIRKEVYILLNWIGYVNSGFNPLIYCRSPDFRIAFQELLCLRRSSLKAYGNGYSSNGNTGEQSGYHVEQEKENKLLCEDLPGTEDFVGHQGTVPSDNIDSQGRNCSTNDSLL
Chain of Beta-1 adrenergic receptor (Homo sapiens) (P08588 whole entry, looked up): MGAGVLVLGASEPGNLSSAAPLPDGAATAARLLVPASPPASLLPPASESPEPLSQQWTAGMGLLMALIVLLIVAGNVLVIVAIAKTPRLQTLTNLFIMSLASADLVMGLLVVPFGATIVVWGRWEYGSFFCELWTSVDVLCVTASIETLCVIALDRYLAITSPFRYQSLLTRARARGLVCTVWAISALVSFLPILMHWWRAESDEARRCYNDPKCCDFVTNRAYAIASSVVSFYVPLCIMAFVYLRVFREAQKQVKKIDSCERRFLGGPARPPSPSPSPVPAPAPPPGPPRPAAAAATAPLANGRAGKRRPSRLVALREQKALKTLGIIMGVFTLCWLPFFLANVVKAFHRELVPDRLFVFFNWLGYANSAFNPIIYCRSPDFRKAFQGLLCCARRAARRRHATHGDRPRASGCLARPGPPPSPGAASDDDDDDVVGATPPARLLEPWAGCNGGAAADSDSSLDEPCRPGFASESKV
Chain of Beta-3 adrenergic receptor (Homo sapiens) (P13945 whole entry, looked up): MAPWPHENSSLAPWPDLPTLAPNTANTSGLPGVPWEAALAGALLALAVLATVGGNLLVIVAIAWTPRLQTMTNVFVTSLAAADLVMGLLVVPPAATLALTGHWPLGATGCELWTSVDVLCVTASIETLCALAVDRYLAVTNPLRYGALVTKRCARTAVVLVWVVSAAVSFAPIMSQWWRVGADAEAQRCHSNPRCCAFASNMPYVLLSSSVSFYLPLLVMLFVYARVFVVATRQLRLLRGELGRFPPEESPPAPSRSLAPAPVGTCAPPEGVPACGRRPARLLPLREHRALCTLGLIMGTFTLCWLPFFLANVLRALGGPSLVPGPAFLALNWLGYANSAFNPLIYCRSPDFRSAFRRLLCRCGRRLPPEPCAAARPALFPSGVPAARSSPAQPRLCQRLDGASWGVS
Chain of Free fatty acid receptor 1 (Homo sapiens) (O14842 whole entry): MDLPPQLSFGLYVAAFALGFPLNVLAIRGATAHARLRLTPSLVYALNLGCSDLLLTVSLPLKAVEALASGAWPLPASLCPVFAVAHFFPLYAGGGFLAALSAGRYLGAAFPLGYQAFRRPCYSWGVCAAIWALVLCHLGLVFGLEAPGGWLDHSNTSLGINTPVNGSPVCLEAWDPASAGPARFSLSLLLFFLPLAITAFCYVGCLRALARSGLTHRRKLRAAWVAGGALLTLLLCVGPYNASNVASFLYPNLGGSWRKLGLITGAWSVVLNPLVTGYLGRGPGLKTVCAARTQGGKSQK
Chain of D(1A) dopamine receptor (Homo sapiens) (P21728 whole entry): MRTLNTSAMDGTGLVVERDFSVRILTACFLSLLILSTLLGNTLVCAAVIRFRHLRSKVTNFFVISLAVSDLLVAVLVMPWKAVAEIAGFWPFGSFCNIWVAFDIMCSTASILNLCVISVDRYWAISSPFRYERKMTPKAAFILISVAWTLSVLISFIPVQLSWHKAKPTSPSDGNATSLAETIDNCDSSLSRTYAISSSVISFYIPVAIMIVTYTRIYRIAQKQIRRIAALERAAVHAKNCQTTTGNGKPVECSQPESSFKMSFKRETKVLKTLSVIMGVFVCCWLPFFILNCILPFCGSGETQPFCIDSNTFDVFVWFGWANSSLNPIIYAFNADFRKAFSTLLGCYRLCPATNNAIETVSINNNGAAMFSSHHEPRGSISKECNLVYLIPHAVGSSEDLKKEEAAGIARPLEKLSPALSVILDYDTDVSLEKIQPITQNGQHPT

Take `O=P([O-])(OC1=Cc2c(Cl)cccc2Sc2ccccc21)OC1=Cc2c(Cl)cccc2Sc2ccccc21.[Na+]`: the inhibition entry in data set [1], in data set [6], in data set [10], in [13], in [15] and in data set [16] was “inactive” each time. Moreover, the inhibition entry in data set [17], in data set [18] and in data set [21] was “inactive” each time. Besides, the figures for the AUC(0-t) in [2] and in data set [3] were 502 ng·h/mL and 1680 ng·h/mL, respectively. Moreover, the concentration at 0.5 h amounted to 18.6 ng/g in data set [4], 135 ng/mL in [9] and 297 ng/g in [14]. Moreover, the concentration at 2 h stood at 6.3 ng/g in [5], 60.5 ng/g in [7] and 393 ng/mL in data set [8]. The same compound had a bioavailability in [11] of 12%. The inhibition entry with Neutrophil [12], with Monocyte and with Neutrophil [22] was “Active” throughout. Further, the concentration at 8 h in data set [19] stood at 26.1 ng/g. This compound also returned a solubility in [20] of 891 µg/mL.

Usually AUC(0-t) stands for exposure summed from dosing to a finite time, without extrapolation to infinity. Read a high AUC(0-t) as high exposure. A word on the bioavailability: it is the share of a dose that reaches the circulation, judged against a reference dose that is usually intravenous. In general, solubility refers to the dissolved amount per volume that the medium holds. Lower therefore signals little dissolved substance.
